Test results taken from patent US20120035187A1 (priority 2009, published 2012).

Columns and labels:
PC12-HS cells [1] = experiment: Evaluation B: neurite-outgrowth action in presence of NGF; type: cell-based, rat; details: for Evaluation B: Neurite-outgrowth action: 50 μl of 400 ng/ml test sample solution per well + NGF final 5 ng/ml; for Evaluation B: Neurite-outgrowth action / Percentage (%) of cells with neurite outgrowth: 3 days; for Percentage (%) of cells with neurite outgrowth: 50 μl/well of 2 μg/ml test solution + NGF final 5 ng/ml
PC12-HS cells [2] = experiment: Evaluation A: neurocyte (cell)-growth-promoting action, ALAMAR BLUE; type: cell-based, rat
Protocol: Then, the effects of test samples were judged as follows:
The relative value of 140 to 199: Equivalent effect to that of NK-4, symbol (∘); The relative value of 200 or higher: Stronger effect than that of NK-4, symbol ([…]). • The results are in Table 6.
The relative fluorescent intensity of each well was determined by using the fluorescent intensity of each well with cells, which had been cultured by admixing with D-MEM medium containing 10% by volume of FBS without any of the compounds, and the intensity of the resulting culture was regarded as 100%. The results are expressed as cell survival percentages (%) in Table 9. […]
The test was conducted twice for each test sample in a triplicate manner and the data were averaged.
Seven compounds as in Table 17, NK-234, NK-26, NK-9815, NK-9694, NK-28 and NK-147 as well as NK-4, were each dissolved in DMSO to give a concentration of 5 mg/ml. […] The test was conducted twice for each test sample in a triplicate manner and the data were averaged.

[3] = 100 μl/well of 100 ng/ml test solution, 3 days, control = 100

Structure (SMILES)	Evaluation B: Neurite-outgrowth action (PC12-HS cells [1])	further results
CCN1/C(=C/C2=CC(=C/C=C/C3=CC(=C/c4sc5ccccc5[n+]4CC)/CC(C)(C)C3)/CC(C)(C)C2)Sc2ccccc21.[O-][Cl+3]([O-])([O-])[O-] [NK-2545]	∘ (The test sample with a neurite outgrowth rate of 30% or higher was judged to be equivalent or more (∘) compared with NK-4)	
CCN1/C(=C/c2cc[n+](CC)c3ccccc23)Sc2ccccc21.[I-] [NK-750]	∘ (The test sample with a neurite outgrowth rate of 30% or higher was judged to be equivalent or more (∘) compared with NK-4)	
CN1/C(=C/c2oc3ccccc3[n+]2C)Oc2ccccc21.[I-] [NK-87]	∘ (The test sample with a neurite outgrowth rate of 30% or higher was judged to be equivalent or more (∘) compared with NK-4)	
CCCC[n+]1c(C=Cc2ccc(N(C)C)cc2)sc2ccccc21.[I-] [NK-490]	∘ (The test sample with a neurite outgrowth rate of 30% or higher was judged to be equivalent or more (∘) compared with NK-4)	
CCN1/C(=C/c2ccc3ccccc3[n+]2CC)C=Cc2ccccc21.[Br-] [NK-1046]	∘ (The test sample with a neurite outgrowth rate of 30% or higher was judged to be equivalent or more (∘) compared with NK-4)	
CCCCN1C(C)=CS\C1=C/C=C(\C=C\c1scc(C)[n+]1CCCC)c1scc(C)[n+]1CCCC.[I-].[I-] [NK-24]		Percentage (%) of cells with neurite outgrowth (PC12-HS cells [1]): 33%; Action of enhancing cell growth (%) (PC12-HS cells [2]; [3]): 581%
CN1/C(=C/C=C/c2oc3ccccc3[n+]2C)Oc2ccccc21.[I-] [NK-86]	∘ (The test sample with a neurite outgrowth rate of 30% or higher was judged to be equivalent or more (∘) compared with NK-4)	
CCCCN1C(C)=CS\C1=C/C=C(\C=C\c1scc(C)[n+]1CCCC)c1scc(C)[n+]1CCCC.[Cl-].[Cl-] [NK-56]		Percentage (%) of cells with neurite outgrowth (PC12-HS cells [1]): 28%
CCCCCCC[n+]1c(C)csc1/C=C/c1ccc(N(C)C)cc1.[Cl-] [NK-279]	∘ (The test sample with a neurite outgrowth rate of 30% or higher was judged to be equivalent or more (∘) compared with NK-4)	
CCN1/C(=C/C=C/c2cc[n+](CC)c3ccccc23)Oc2ccccc21.[I-] [NK-741]	∘ (The test sample with a neurite outgrowth rate of 30% or higher was judged to be equivalent or more (∘) compared with NK-4)	
Cc1ccc2c(c1)S/C(=C\c1sc3cc(C)ccc3[n+]1C)N2C.[I-] [NK-594]	∘ (The test sample with a neurite outgrowth rate of 30% or higher was judged to be equivalent or more (∘) compared with NK-4)	
CN1/C(=C/C=C/C=C/C=C/C2=[N+](C)c3ccccc3C2(C)C)C(C)(C)c2ccccc21.[I-] [NK-125]	∘ (The test sample with a neurite outgrowth rate of 30% or higher was judged to be equivalent or more (∘) compared with NK-4)	
CCCCCCCCCCCN1C(C)=CS\C1=C/C=C(/C=C/c1scc(C)[n+]1CCCCCCCCCCC)c1scc(C)[n+]1CCCCCCCCCCC.[I-].[I-] [NK-9640]		Percentage (%) of cells with neurite outgrowth (PC12-HS cells [1]): 13%; Action of enhancing cell growth (%) (PC12-HS cells [2]; [3]): 191%
CCN1C(C)=CS\C1=C/C=C(\C=C\c1scc(C)[n+]1CC)c1scc(C)[n+]1CC.[I-].[I-] [NK-13]		Percentage (%) of cells with neurite outgrowth (PC12-HS cells [1]): 5%; Action on neurite outgrowth (%) (PC12-HS cells [1]; compound concentration 80 ng/ml): 10< %; Action on neurite outgrowth (%) (PC12-HS cells [1]; compound concentration 400 ng/ml): 10< %; Action on neurite outgrowth (%) (PC12-HS cells [1]; compound concentration 2000 ng/ml): 10< %; Action on neurite outgrowth (%) (PC12-HS cells [1]; compound concentration 10000 ng/ml): 10< %; Action of enhancing cell growth (%) (PC12-HS cells [2]; [3]): 125%; Action of enhancing cell growth (%) (PC12-HS cells [2]; compound concentration 25 ng/ml): 126 ± 12%; Action of enhancing cell growth (%) (PC12-HS cells [2]; compound concentration 50 ng/ml): 140 ± 7%; Action of enhancing cell growth (%) (PC12-HS cells [2]; compound concentration 100 ng/ml): 231 ± 84%; Action of enhancing cell growth (%) (PC12-HS cells [2]; compound concentration 200 ng/ml): 209 ± 24%
CCN1/C(=C/C=C/C=C/c2sc3ccc4ccccc4c3[n+]2CC)Sc2ccc3ccccc3c21.[I-] [NK-2409]	∘ (The test sample with a neurite outgrowth rate of 30% or higher was judged to be equivalent or more (∘) compared with NK-4)	
CCCCCCCCCCCCN1C(C)=CS\C1=C/C=C(/C=C/c1scc(C)[n+]1CCCCCCCCCCCC)c1scc(C)[n+]1CCCCCCCCCCCC.[I-].[I-] [NK-32]		Percentage (%) of cells with neurite outgrowth (PC12-HS cells [1]): 16%; Action of enhancing cell growth (%) (PC12-HS cells [2]; [3]): 199%
CCCCCN1/C(=C/C2=[N+](C)c3ccccc3C2(C)C)C(C)(C)c2ccccc21.[O-][Cl+3]([O-])([O-])[O-] [NK-3206]	∘ (The test sample with a neurite outgrowth rate of 30% or higher was judged to be equivalent or more (∘) compared with NK-4)	
CCCCN1C(C)=CS/C1=C\c1scc(C)[n+]1CCCC.[I-] [NK-399]	∘ (The test sample with a neurite outgrowth rate of 30% or higher was judged to be equivalent or more (∘) compared with NK-4)	
CCCCCCCN1C(C)=CS/C1=C\c1scc(C)[n+]1CCCCCCC.[I-] [NK-266]	∘ (The test sample with a neurite outgrowth rate of 30% or higher was judged to be equivalent or more (∘) compared with NK-4)	

Structure (SMILES)	Evaluation B: Neurite-outgrowth action (PC12-HS cells [1])	further results
CCN1/C(=C/c2oc3ccccc3[n+]2CC)Sc2ccccc21.[I-] [NK-1049]	∘ (The test sample with a neurite outgrowth rate of 30% or higher was judged to be equivalent or more (∘) compared with NK-4)	
CC1=CS\C(=C/C=C(\C=C\c2scc(C)[n+]2C)c2scc(C)[n+]2C)N1C.[I-].[I-] [NK-2]		Percentage (%) of cells with neurite outgrowth (PC12-HS cells [1]): 4%; Action of enhancing cell growth (%) (PC12-HS cells [2]; [3]): 126%
CCCCCCCCCCN1C(C)=CS\C1=C/C=C(\C=C\c1scc(C)[n+]1CCCCCCCCCC)c1scc(C)[n+]1CCCCCCCCCC.[I-].[I-] [NK-2844]		Percentage (%) of cells with neurite outgrowth (PC12-HS cells [1]): 54%; Action of enhancing cell growth (%) (PC12-HS cells [2]; [3]): 399%
CC[n+]1ccc(/C=C/C=C/c2ccc(N(C)C)cc2)c2ccccc21.[I-] [NK-526]	∘ (The test sample with a neurite outgrowth rate of 30% or higher was judged to be equivalent or more (∘) compared with NK-4)	
CCN1/C(=C/C=C/c2oc3ccccc3[n+]2CC)Oc2ccccc21.[I-] [NK-85]	∘ (The test sample with a neurite outgrowth rate of 30% or higher was judged to be equivalent or more (∘) compared with NK-4)	
CC(C)CC[n+]1ccc(/C=C/c2ccc(N(C)C)cc2)c2ccccc21.[I-] [NK-282]	∘ (The test sample with a neurite outgrowth rate of 30% or higher was judged to be equivalent or more (∘) compared with NK-4)	
CCN1/C(=C/c2cc[n+](CC)c3ccccc23)C=Cc2ccccc21.[I-] [NK-276]	∘ (The test sample with a neurite outgrowth rate of 30% or higher was judged to be equivalent or more (∘) compared with NK-4)	
CN1/C(=C/C2=[N+](C)c3ccccc3C2(C)C)Oc2ccccc21.[I-] [NK-1684]	∘ (The test sample with a neurite outgrowth rate of 30% or higher was judged to be equivalent or more (∘) compared with NK-4)	
CCN1C(C)=CS/C1=C\C=C\c1scc(C)[n+]1CC [NK-67]	∘ (The test sample with a neurite outgrowth rate of 30% or higher was judged to be equivalent or more (∘) compared with NK-4)	
CCN1/C(=C/C=C/c2sc3ccc4ccccc4c3[n+]2CC)Sc2ccc3ccccc3c21.[I-] [NK-382]	∘ (The test sample with a neurite outgrowth rate of 30% or higher was judged to be equivalent or more (∘) compared with NK-4)	
CCCCCCC[n+]1c(/C=C/c2ccc(N(C)C)cc2)ccc2ccccc21.[I-] [NK-231]	∘ (The test sample with a neurite outgrowth rate of 30% or higher was judged to be equivalent or more (∘) compared with NK-4)	
CCCCCN1C(C)=CS\C1=C/C=C(\C=C\c1scc(C)[n+]1CCCCC)c1scc(C)[n+]1CCCCC.[I-].[I-] [NK-2850]		Percentage (%) of cells with neurite outgrowth (PC12-HS cells [1]): 56%; Action of enhancing cell growth (%) (PC12-HS cells [2]; [3]): 553%
CC[n+]1c(/C=C/c2ccc(N(C)C)cc2)[se]c2ccccc21.[I-] [NK-1055]	∘ (The test sample with a neurite outgrowth rate of 30% or higher was judged to be equivalent or more (∘) compared with NK-4)	
CCN1/C(=C/c2oc3ccccc3[n+]2CC)Oc2ccccc21.[I-] [NK-863]	∘ (The test sample with a neurite outgrowth rate of 30% or higher was judged to be equivalent or more (∘) compared with NK-4)	
CCN1/C(=C/c2sc3ccccc3[n+]2CC)Sc2ccccc21.[Br-] [NK-1560]	∘ (The test sample with a neurite outgrowth rate of 30% or higher was judged to be equivalent or more (∘) compared with NK-4)	
CC[n+]1c(/C=C/C=C/c2ccc(N(C)C)cc2)sc2ccccc21.[I-] [NK-375]	∘ (The test sample with a neurite outgrowth rate of 30% or higher was judged to be equivalent or more (∘) compared with NK-4)	
CC[n+]1ccc(/C=C/c2ccc3c(c2)OCO3)c2ccccc21.[I-] [NK-629]	∘ (The test sample with a neurite outgrowth rate of 30% or higher was judged to be equivalent or more (∘) compared with NK-4)	
CCN1/C(=C/C=C/C=C/c2sc3ccccc3[n+]2CC)Sc2ccccc21.[I-] [NK-136]	∘ (The test sample with a neurite outgrowth rate of 30% or higher was judged to be equivalent or more (∘) compared with NK-4)	
